# Source: patent US20150218164A1, “SUBSTITUTED NAPHTHYRIDINEDIONE DERIVATIVES AS HIV INTEGRASE INHIBITORS” (MERCK SHARP & DOHME CORP., priority 2012, published 2015)
# Tested on: HIV-1 (NL4-3 strain)
# Experiment: Assay for inhibition of HIV replication (MT4-gag-GFP reporter cells, wild type cell assay)
# Assay type: cell-based
# Conditions: 50% NHS; MT4-GFP cells infected with HIV-1 NL4-3; infected cells at 48 h / 24 h; read-out: Wild Type Cell Assay IP (% NHS)
# Description: This assay is a kinetic assay that employs a reporter cell line (MT4-gag-GFP) to quantify the number of new cells infected in each round of replication. Briefly, MT4-GFP cells (250,000 cells/ml) were bulk-infected with HIV-1 (NL4-3 strain) at low multiplicity of infection (MOI) in RPMI+10% FBS for 24 hours. Cells were then washed once in RPMI+10% FBS and resuspended RPMI+10% or 50% normal human serum (NHS). Test compounds were serial-diluted in DMSO on ECHO. The infected MT4-GFP cells were added to a 384-well poly-D-lysine coated black plate with clear bottom in which the diluted test compounds were placed. The cells were seeded at 8,000 cells per well and the final DMSO concentration was 0.4%. The infected cells (Green GFP cells) were quantified at both 24 and 48 hours post incubation using Acumen eX3. Viral reproductive ratio (R0) was determined using the number of infected cells at 48 hours divided by the number of infected cells at 24 hours. Percent viral growth inhibition was calculated by [1−(R−Rtripledrug)/(RDMSO−Rtripledrug)]*100. Compound potency IP or IC50 was determined by a 4-parameter dose response curve analysis.
row,IC50,Compound
1,28 nM,CSCC12CC1CCC21NC(=O)c2c3c(c(O)c(=O)n21)C(=O)N(Cc1ccc(F)c(Cl)c1)CC3 (stereo not shown) [Compound 17]

# Same assay, conditions: Human immunodeficiency virus 1, NL43, 10% NHS; MT4-GFP cells infected with HIV-1 NL4-3; infected cells at 48 h / 24 h; read-out: Wild Type Cell Assay IP (% NHS)
row,IC50,Compound
1,7.5 nM,"O=C1c2c(c3n(c(=O)c2O)[C@@]2(CC[C@H]4C[C@H]42)N(CC(O)CF)C3=O)CCN1Cc1ccc(F)c(Cl)c1 (single isomer, unassigned) [Compound 4]"
2,27 nM,"O=C1c2c(c3n(c(=O)c2O)[C@@]2(CC[C@H]4C[C@H]42)N(CC(F)CO)C3=O)CCN1Cc1ccc(F)c(Cl)c1 (single isomer, unassigned) [Compound 5]"

# Same assay, conditions: Human immunodeficiency virus 1, NL43, 50% NHS; MT4-GFP cells infected with HIV-1 NL4-3; infected cells at 48 h / 24 h; read-out: Wild Type Cell Assay IP (% NHS)
row,Compound,IC50
1,"CN1C(=O)c2c3c(c(O)c(=O)n2[C@]12CC[C@@H]1C[C@@]12COP(=O)(O)O)C(=O)N(Cc1ccc(F)c(Cl)c1)CC3 (single isomer, unassigned) [Compound 19]",2090 nM
2,C[C@@H](CN1C(=O)c2c3c(c(O)c(=O)n2[C@@]12CC[C@H]1C[C@H]12)C(=O)N(Cc1ccc(F)c(Cl)c1)CC3)OP(=O)(O)O [Compound 1],1200 nM
3,C[C@@H](CN1C(=O)c2c3c(c(O)c(=O)n2[C@@]12CC[C@H]1C[C@H]12)C(=O)N(Cc1ccc(F)c(Cl)c1)CC3)OC(=O)[C@@H](N)CCCCN [Compound 8],46 nM
4,CC(C)C[C@H](N)C(=O)O[C@@H](C)CN1C(=O)c2c3c(c(O)c(=O)n2[C@@]12CC[C@H]1C[C@H]12)C(=O)N(Cc1ccc(F)c(Cl)c1)CC3 [Compound 10],49 nM
5,CSCC[C@H](N)C(=O)O[C@@H](C)CN1C(=O)c2c3c(c(O)c(=O)n2[C@@]12CC[C@H]1C[C@H]12)C(=O)N(Cc1ccc(F)c(Cl)c1)CC3 [Compound 11],71 nM
6,CC(C)[C@H](N)C(=O)O[C@@H](C)CN1C(=O)c2c3c(c(O)c(=O)n2[C@@]12CC[C@H]1C[C@H]12)C(=O)N(Cc1ccc(F)c(Cl)c1)CC3 [Compound 12],54 nM
7,C[C@@H](CN1C(=O)c2c3c(c(O)c(=O)n2[C@@]12CC[C@H]1C[C@H]12)C(=O)N(Cc1ccc(F)c(Cl)c1)CC3)OC(=O)CN(C)C [Compound 13],69 nM
8,CN1C(=O)c2c3c(c(O)c(=O)n2[C@@]12CC[C@@H]1C[C@@]12CO)C(=O)N(Cc1ccc(F)c(Cl)c1)CC3 [Compound 14],14 nM
9,CN1C(=O)c2c3c(c(O)c(=O)n2[C@]12CC[C@@H]1C[C@@]12CO)C(=O)N(Cc1ccc(F)c(Cl)c1)CC3 [Compound 15],24 nM
10,CSCC12CC1CCC21NC(=O)c2c3c(c(O)c(=O)n21)C(=O)N(Cc1ccc(F)c(Cl)c1)CC3 (stereo not shown) [Compound 16],20 nM
11,CS(=O)(=O)CC12CC1CCC21NC(=O)c2c3c(c(O)c(=O)n21)C(=O)N(Cc1ccc(F)c(Cl)c1)CC3 (stereo not shown) [Compound 18],37 nM

# Further lines, results first:
row,IC50,Compound
1,33 nM,"C[C@@H](O)CN1C(=O)c2c3c(c(O)c(=O)n2[C@@]12CC[C@H]1C[C@H]12)C(=O)N(Cc1ccc(F)c(Cl)c1)CC3 (single isomer, unassigned) [Compound 2]"
2,32 nM,"CC(O)CCN1C(=O)c2c3c(c(O)c(=O)n2[C@@]12CC[C@H]1C[C@H]12)C(=O)N(Cc1ccc(F)c(Cl)c1)CC3 (single isomer, unassigned) [Compound 3]"
3,53 nM,"C[C@H](O)CN1C(=O)c2c3c(c(O)c(=O)n2[C@@]12CC[C@H]1C[C@H]12)C(=O)N(Cc1ccc(F)c(Cl)c1)CC3 (single isomer, unassigned) [Compound 6]"
4,1090 nM,C[C@H](CN1C(=O)c2c3c(c(O)c(=O)n2[C@@]12CC[C@H]1C[C@H]12)C(=O)N(Cc1ccc(F)c(Cl)c1)CC3)OP(=O)(O)O [Compound 7]
5,42 nM,C[C@H](N)C(=O)O[C@@H](C)CN1C(=O)c2c3c(c(O)c(=O)n2[C@@]12CC[C@H]1C[C@H]12)C(=O)N(Cc1ccc(F)c(Cl)c1)CC3 [Compound 9]
